Results from patent publication US10441562B2, “Aromatic farnesyl compound and application thereof” (INSTITUTE OF MICROBIOLOGY, CHINESE ACADEMY OF SCIENCES, priority 2015, dated 2019).
pIC50: −log10 of the molar value. Read-outs that look alike come from different tables or passages of the source.

Legend:
Format in all cases: biochemical
dipeptidyl peptidase-4 = target: T1, dipeptidyl peptidase-4 (Homo sapiens, UniProt P27487); assay: dipeptidyl peptidase-4 inhibitory activity test in vitro (DPP-4 inhibitor screening kit)
T1 construct: purchased
Source text: The above compounds are detected by DPP-4 inhibitor screening kit.

α-glucosidase = target: T2, α-glucosidase (Saccharomyces cerevisiae, UniProt P53341); assay: α-glucosidase inhibitory activity test in vitro
T2 construct: purchased Sigma Corporation G5003
Method: Add 25 μL α-glucosidase water solution (0.2 U/mL) and 175 μL phosphate buffer (50 mM, pH 7.0) into 25 μL different concentration of the above test solutions. The mixed solution is standed for 10 min at room temperature, and then 25 μL 4-nitrophenyl-α-D-glucopyranoside water solution (2.5 mM) is added into the mixed solution. After the solution is incubated at 37 °C for 30 min and centrifuged at 5000 rpm for 5 minutes, 150 uL supernatant is added into 96-well plates and the absorbance is detected at 405 nm.
Blank group: the test solution is replaced by 25 μL phosphate buffer (50 mM, pH 7.0); blank control group: the test solution is replaced by 25 μL phosphate buffer (50 mM, pH 7.0), meanwhile α-glucosidase water solution is replaced by 25 μL phosphate buffer (50 mM, pH 7.0); sample control group: α-glucosidase water solution is replaced by 25 μL phosphate buffer (50 mM, pH 7.0).
(§1) Repeat each of the above experiment groups for 3 times, and then average the results.
IC50=[CL(IH−50)+CH(50−IL)]/(IH−IL) CL: low concentration value; CH: high concentration value; IH: inhibition rate in high concentration; IL: inhibition rate in low concentration

HMG-CoA reductase = target: T3, HMG-CoA reductase (Homo sapiens, UniProt P04035); assay: HMG-CoA reductase inhibitory activity test in vitro
T3 sequence (P04035 426-888 limits assumed): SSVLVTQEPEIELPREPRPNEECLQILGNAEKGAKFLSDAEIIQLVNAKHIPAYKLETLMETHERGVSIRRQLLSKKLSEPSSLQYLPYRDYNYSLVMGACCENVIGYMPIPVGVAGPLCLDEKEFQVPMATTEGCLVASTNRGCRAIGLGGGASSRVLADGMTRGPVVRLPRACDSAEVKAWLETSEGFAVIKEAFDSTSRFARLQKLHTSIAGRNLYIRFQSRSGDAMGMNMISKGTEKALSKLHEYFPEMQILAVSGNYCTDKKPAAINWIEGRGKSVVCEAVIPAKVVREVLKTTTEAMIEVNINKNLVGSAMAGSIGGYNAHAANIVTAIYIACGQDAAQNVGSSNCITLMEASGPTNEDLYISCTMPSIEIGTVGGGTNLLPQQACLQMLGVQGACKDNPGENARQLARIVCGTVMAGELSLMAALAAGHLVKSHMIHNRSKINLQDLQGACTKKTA
Method: Add 25 μL HMG-CoA reductase water solution (0.2 U/mL), 25 μL NADPH water solution (0.2 U/mL) and 24 μL phosphate buffer (50 mM, pH 7.0) into 1 μL different concentration of the above test solution. The mixed solution is standed for 10 min at room temperature, and then 25 μL HMG-CoA is added into the mixed solution. After the solution is incubated at 37∞ for 30 min and centrifuged at 5000 rpm for 5 minutes, 80 uL supernatant is added into 96-well plates and the absorbance is detected at 550 nm.
as §1

aldose reductase = aldose reductase (Homo sapiens, UniProt P15121); assay: aldose reductase inhibitory activity test in vitro
Method: Experimental procedure: the following reagents are added into 96-well plates in sequence and the mixture ratios of different groups are as followings:
Test group: 10 μL compound solution+25 μL (0.1 mM) NADPH solution+25 μL PBS buffer solution+15 μL aldose reductase diluent
Blank group: 25 μL (0.1 mM) NADPH solution+35 μL PBS buffer solution+15 μL aldose reductase diluent
Background group: 25 μL (0.1 mM) NADPH solution+60 μL PBS buffer solution+15 μL aldose reductase diluent
After adding the reagents, the 96-well plate is standed for 10 min at room temperature to make the compound and the enzyme react completely. Add 25 μL 10 mM D, L glyceraldehyde solution which is used as substrate into the groups except for background group, and incubate the solution at 37 °C for 30 min. Then detect the optical density of each well at 340 nm.

[1] = target: T4, protein tyrosine phosphatase 1B (PTP-1B) (Homo sapiens, UniProt P18031); assay: PTP-1B inhibitory activity test in vitro
T4 sequence (P18031 1-435): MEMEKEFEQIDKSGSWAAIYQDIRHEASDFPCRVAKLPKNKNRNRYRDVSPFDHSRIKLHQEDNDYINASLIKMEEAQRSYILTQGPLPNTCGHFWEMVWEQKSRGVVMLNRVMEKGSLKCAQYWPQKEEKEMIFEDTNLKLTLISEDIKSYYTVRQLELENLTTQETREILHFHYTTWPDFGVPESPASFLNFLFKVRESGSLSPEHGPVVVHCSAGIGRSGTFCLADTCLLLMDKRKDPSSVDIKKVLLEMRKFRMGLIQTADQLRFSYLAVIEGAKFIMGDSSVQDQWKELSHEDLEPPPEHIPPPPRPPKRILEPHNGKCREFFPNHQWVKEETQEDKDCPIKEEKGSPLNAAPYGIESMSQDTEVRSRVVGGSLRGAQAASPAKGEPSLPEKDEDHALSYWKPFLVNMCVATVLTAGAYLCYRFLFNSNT
Method: Experimental procedure: the following reagents are added into 96-well plates in sequence and the mixture ratios of different groups are as followings: Test group: 50 μL compound solution+50 μL 170 μg/mL PTP-1B solution […] Blank group: 50 μL buffer solution+50 μL 170 μg/mL PTP-1B solution Background group: 50 μL compound solution+50 μL buffer solution After adding the reagents, the 96-well plate is […] for 10 min at room temperature to make the compound and the enzyme react completely. Add 50 μL 1 mM pNPP solution which is used as substrate and incubate the mixed solution at 37 °C for 30 min. Then add 50 μL 3M NaOH into each well of the plate to stop the reaction and the optical density is detected at […].

[2] = read-out: α-glucosidase inhibitory activity (IC50)

T1 sequence (P27487 whole entry, species assumed): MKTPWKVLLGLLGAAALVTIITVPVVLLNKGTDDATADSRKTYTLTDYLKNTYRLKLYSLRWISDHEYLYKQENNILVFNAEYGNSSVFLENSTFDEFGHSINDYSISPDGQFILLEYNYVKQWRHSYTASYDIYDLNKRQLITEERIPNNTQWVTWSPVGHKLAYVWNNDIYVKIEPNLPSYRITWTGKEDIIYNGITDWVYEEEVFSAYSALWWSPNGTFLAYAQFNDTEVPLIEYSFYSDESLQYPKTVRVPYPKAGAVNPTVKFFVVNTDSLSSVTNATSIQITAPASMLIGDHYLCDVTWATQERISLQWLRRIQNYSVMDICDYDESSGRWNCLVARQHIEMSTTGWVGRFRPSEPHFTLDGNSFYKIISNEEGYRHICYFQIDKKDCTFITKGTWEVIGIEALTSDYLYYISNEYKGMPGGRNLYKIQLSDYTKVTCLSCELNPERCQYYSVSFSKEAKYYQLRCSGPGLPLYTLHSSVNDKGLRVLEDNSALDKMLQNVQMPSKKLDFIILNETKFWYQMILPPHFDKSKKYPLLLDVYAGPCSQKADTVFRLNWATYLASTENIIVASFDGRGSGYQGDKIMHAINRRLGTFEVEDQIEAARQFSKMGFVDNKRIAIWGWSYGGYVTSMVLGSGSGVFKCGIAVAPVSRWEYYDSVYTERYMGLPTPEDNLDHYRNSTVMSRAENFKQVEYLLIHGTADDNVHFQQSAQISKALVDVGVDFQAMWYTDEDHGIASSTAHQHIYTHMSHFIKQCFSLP
T2 sequence (P53341 whole entry): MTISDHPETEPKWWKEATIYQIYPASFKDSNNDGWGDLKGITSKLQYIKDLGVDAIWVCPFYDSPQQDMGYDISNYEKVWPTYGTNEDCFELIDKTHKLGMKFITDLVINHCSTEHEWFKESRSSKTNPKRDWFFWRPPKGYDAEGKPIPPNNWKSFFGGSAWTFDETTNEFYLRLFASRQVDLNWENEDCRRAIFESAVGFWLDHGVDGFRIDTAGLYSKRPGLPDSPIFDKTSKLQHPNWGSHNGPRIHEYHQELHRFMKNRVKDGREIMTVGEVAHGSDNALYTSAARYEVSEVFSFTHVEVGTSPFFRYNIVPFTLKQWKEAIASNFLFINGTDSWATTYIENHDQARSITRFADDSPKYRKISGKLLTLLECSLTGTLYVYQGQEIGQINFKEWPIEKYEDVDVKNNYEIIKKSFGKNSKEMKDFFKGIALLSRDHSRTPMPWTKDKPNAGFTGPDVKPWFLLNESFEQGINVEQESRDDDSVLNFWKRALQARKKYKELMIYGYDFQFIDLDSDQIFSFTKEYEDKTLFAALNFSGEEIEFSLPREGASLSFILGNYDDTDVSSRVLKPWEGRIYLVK

CC(C)=CCC/C(C)=C/CCC1=C[C@H](c2ccccc2)OC1=O [S1, (R,E)-3-(4,8-dimethylnona-3,7-dien-1-yl)-5-phenylfuran-2 (5H)-one]
pIC50 (dipeptidyl peptidase-4): 4.91
pIC50 (α-glucosidase; [2]): 6.74
pIC50 (HMG-CoA reductase): 5.42
pIC50 (aldose reductase): 4.25
pIC50 [1]: 4.98

CC(C)=CCC/C(C)=C/CCC1=C[C@H](c2ccc3ccccc3c2)OC1=O [S2]
pIC50 (dipeptidyl peptidase-4): 4.90
pIC50 (α-glucosidase; [2]): 5.13
pIC50 (HMG-CoA reductase): 4.30
pIC50 (aldose reductase): 4.70
pIC50 [1]: 4.88

COCOc1ccccc1[C@H]1C=C(CC/C=C(\C)CCC=C(C)C)C(=O)O1 [S3]
pIC50 (dipeptidyl peptidase-4): 4.84
pIC50 (α-glucosidase; [2]): 5.06
pIC50 (HMG-CoA reductase): 5.05
pIC50 (aldose reductase): 4.42
pIC50 [1]: 5.11

CC(C)=CCC/C(C)=C/CCC1=C[C@H](c2ccccc2O)OC1=O [S4, (R,E)-3-(4,8-dimethylnona-3,7-dien-1-yl)-5-(2-hydroxyphenyl)furan-2 (5-H)-one]
pIC50 (dipeptidyl peptidase-4): 4.67
pIC50 (α-glucosidase; [2]): 6.68
pIC50 (HMG-CoA reductase): 5.33
pIC50 (aldose reductase): 4.63
pIC50 [1]: 4.95

CC(C)=CCC/C(C)=C/CCC1=C[C@H](c2ccccc2[N+](=O)[O-])OC1=O [S5, (R,E)-3-(4,8-dimethylnona-3,7-dien-1-yl)-5-(2-nitrophenyl)furan-2(5H)-one]
pIC50 (dipeptidyl peptidase-4): 4.68
pIC50 (α-glucosidase; [2]): 7.05
pIC50 (HMG-CoA reductase): 4.72
pIC50 (aldose reductase): 5.07
pIC50 [1]: 5.28

CC(C)=CCC/C(C)=C/CCC1=C[C@H](c2ccc(C)cc2)OC1=O [S6, (R,E)-3-(4,8-dimethylnona-3,7-dien-1-yl)-5-(p-tolyl)furan-2(5H)-one]
pIC50 (dipeptidyl peptidase-4): 4.50
pIC50 (α-glucosidase; [2]): 5.97
pIC50 (HMG-CoA reductase): 5.09
pIC50 (aldose reductase): 4.20
pIC50 [1]: 5.25

CCc1ccc([C@H]2C=C(CC/C=C(\C)CCC=C(C)C)C(=O)O2)cc1 [S7, (R,E)-3-(4,8-dimethylnona-3,7-dien-1-yl)-5-(4-ethylphenyl)furan-2(5H)-one]
pIC50 (dipeptidyl peptidase-4): 5.04
pIC50 (α-glucosidase; [2]): 6.24
pIC50 (HMG-CoA reductase): 5.38
pIC50 (aldose reductase): 4.23
pIC50 [1]: 4.81

CC(C)=CCC/C(C)=C/CCC1=C[C@H](c2ccc(C(C)C)cc2)OC1=O [S8, (R,E)-3-(4,8-dimethylnona-3,7-dien-1-yl)-5-(4-isopropylphenyl)furan-2(5H)-one]
pIC50 (dipeptidyl peptidase-4): 5.03
pIC50 (α-glucosidase; [2]): 4.25
pIC50 (HMG-CoA reductase): < 4.00
pIC50 (aldose reductase): 4.07
pIC50 [1]: 4.90

CC(C)=CCC/C(C)=C/CCC1=C[C@H](c2ccc(C(C)(C)C)cc2)OC1=O [S9, (R,E)-5-(4-(tert-butyl)phenyl)-3-(4,8-dimethylnona-3,7-dien-1-yl)furan-2 (5H)-one]
pIC50 (dipeptidyl peptidase-4): 4.72
pIC50 (α-glucosidase; [2]): 6.80
pIC50 (HMG-CoA reductase): 4.79
pIC50 (aldose reductase): 5.85
pIC50 [1]: 4.80

COc1ccc([C@H]2C=C(CC/C=C(\C)CCC=C(C)C)C(=O)O2)cc1 [S10, (R,E)-3-(4,8-dimethylnona-3,7-dien-1-yl)-5-(4-methoxyphenyl)furan-2(5H)-one]
pIC50 (dipeptidyl peptidase-4): 4.74
pIC50 (α-glucosidase; [2]): < 4.30
pIC50 (HMG-CoA reductase): 5.92
pIC50 (aldose reductase): < 4.00
pIC50 [1]: 5.00

CC(C)=CCC/C(C)=C/CCC1=C[C@H](c2ccc([N+](=O)[O-])cc2)OC1=O [S11, (R,E)-3-(4,8-dimethylnona-3,7-dien-1-yl)-5-(4-nitrophenyl)furan-2(5H)-one]
pIC50 (dipeptidyl peptidase-4): 4.99
pIC50 (α-glucosidase; [2]): 4.47
pIC50 (HMG-CoA reductase): 5.13
pIC50 (aldose reductase): 5.31
pIC50 [1]: 5.09

COc1ccc(OC)c([C@H]2C=C(CC/C=C(\C)CCC=C(C)C)C(=O)O2)c1 [S12, (R,E)-5-(2,5-dimethoxyphenyl)-3-(4,8-dimethylnona-3,7-dien-1-yl)furan-2(5H)-one]
pIC50 (dipeptidyl peptidase-4): 5.06
pIC50 (α-glucosidase; [2]): 4.94
pIC50 (HMG-CoA reductase): 5.36
pIC50 (aldose reductase): 4.58
pIC50 [1]: 4.93

CC(C)=CCC/C(C)=C/CCC1=C[C@H](c2c(F)cccc2F)OC1=O [S14, (R,E)-5-(2,6-difluorophenyl)-3-(4,8-dimethylnona-3,7-dien-1-yl)furan-2(5H)-one]
pIC50 (dipeptidyl peptidase-4): 4.61
pIC50 (α-glucosidase; [2]): 5.43
pIC50 (HMG-CoA reductase): 4.60
pIC50 (aldose reductase): 4.49
pIC50 [1]: 5.43

CC(C)=CCC/C(C)=C/CCC1=C[C@H](c2cc(F)c(F)c(F)c2)OC1=O [S15, (R,E)-3-(4,8-dimethylnona-3,7-dien-1-yl)-5-(3,4,5-trifluorophenyl)furan-2(5H)-one]
pIC50 (dipeptidyl peptidase-4): 4.92
pIC50 (α-glucosidase; [2]): 5.90
pIC50 (HMG-CoA reductase): 4.42
pIC50 (aldose reductase): 4.26
pIC50 [1]: 4.60

CC(C)=CCC/C(C)=C/CCC1=C[C@@H](c2ccc3ccccc3c2)OC1=O [S17, (S,E)-3-(4,8-dimethylnona-3,7-dien-1-yl)-5-(naphthalen-2-yl)furan-2 (5H)-one]
pIC50 (dipeptidyl peptidase-4): 4.87
pIC50 (α-glucosidase; [2]): 5.20
pIC50 (HMG-CoA reductase): 4.37
pIC50 (aldose reductase): 4.69
pIC50 [1]: 5.00

COCOc1ccccc1[C@@H]1C=C(CC/C=C(\C)CCC=C(C)C)C(=O)O1 [S18, (S,E)-3-(4,8-dimethylnona-3,7-dien-1-yl)-5-(2-(methoxymethoxy)phenyl) furan-2(5H)-one]
pIC50 (dipeptidyl peptidase-4): 4.84
pIC50 (α-glucosidase; [2]): 5.09
pIC50 (HMG-CoA reductase): 5.21
pIC50 (aldose reductase): 4.40
pIC50 [1]: 5.09

CC(C)=CCC/C(C)=C/CCC1=C[C@@H](c2ccccc2O)OC1=O [S19, (S,E)-3-(4,8-dimethylnona-3,7-dien-1-yl)-5-(2-hydroxyphenyl)furan-2(5H)-one]
pIC50 (dipeptidyl peptidase-4): 4.69
pIC50 (α-glucosidase; [2]): 6.28
pIC50 (HMG-CoA reductase): 5.26
pIC50 (aldose reductase): 4.60
pIC50 [1]: 4.94

CC(C)=CCC/C(C)=C/CCC1=C[C@@H](c2ccccc2[N+](=O)[O-])OC1=O [S20, (S,E)-3-(4,8-dimethylnona-3,7-dien-1-yl)-5-(2-nitrophenyl)furan-2(5H)-one]
pIC50 (dipeptidyl peptidase-4): 4.68
pIC50 (α-glucosidase; [2]): 6.68
pIC50 (HMG-CoA reductase): 4.86
pIC50 (aldose reductase): 5.02
pIC50 [1]: 5.33

CC(C)=CCC/C(C)=C/CCC1=C[C@@H](c2ccc(C)cc2)OC1=O [S21, (S,E)-3-(4,8-dimethylnona-3,7-dien-1-yl)-5-(p-tolyl)furan-2(5H)-one]
pIC50 (dipeptidyl peptidase-4): 4.78
pIC50 (α-glucosidase; [2]): 5.99
pIC50 (HMG-CoA reductase): 4.90
pIC50 (aldose reductase): 4.26
pIC50 [1]: 5.24

CC(C)c1c(C(=O)Nc2ccccc2)c(-c2ccccc2)c(-c2ccc(F)cc2)n1CC[C@@H](O)C[C@@H](O)CC(=O)O [atorvastatin, reference compound]
pIC50 (α-glucosidase): 3.56
